The values that follow come from paper PMC8188212, “Multi‐Arm PEG/Peptidomimetic Conjugate Inhibitors of DR6/APP Interaction Block Hematogenous Tumor Cell Extravasation” (Advanced Science, 2021).

Square brackets hold non-standard residues; d marks the D form. Ends that are not written are not given here. Peptide text beside a SMILES is read from it.

For the assay, the target named is T1, DR6 protein (Homo sapiens, UniProt O75509).
T1 construct: purchased Sino Biology, Inc. (Shanghai, China)
T1 sequence (O75509 42-655): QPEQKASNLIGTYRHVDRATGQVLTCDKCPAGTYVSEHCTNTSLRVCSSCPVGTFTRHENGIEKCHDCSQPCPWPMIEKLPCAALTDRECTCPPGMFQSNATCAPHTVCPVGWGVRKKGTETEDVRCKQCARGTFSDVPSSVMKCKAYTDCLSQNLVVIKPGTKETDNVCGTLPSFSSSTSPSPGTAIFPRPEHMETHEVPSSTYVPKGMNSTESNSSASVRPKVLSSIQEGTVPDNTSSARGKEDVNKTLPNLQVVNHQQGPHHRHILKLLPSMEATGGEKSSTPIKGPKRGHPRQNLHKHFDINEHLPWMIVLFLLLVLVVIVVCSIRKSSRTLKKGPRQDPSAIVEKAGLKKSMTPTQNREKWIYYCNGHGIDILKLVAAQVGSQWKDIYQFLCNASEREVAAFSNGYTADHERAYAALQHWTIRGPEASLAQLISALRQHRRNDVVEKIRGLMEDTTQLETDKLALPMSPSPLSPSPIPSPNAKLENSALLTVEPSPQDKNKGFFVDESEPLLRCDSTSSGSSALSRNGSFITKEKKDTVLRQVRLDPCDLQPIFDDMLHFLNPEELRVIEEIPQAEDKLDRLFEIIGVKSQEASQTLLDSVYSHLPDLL
The experiment in a line: KD of DR6-targeting peptides for binding to DR6 protein by MST. The note with it: Tables S1 and S2, average of three independent experiments in triplicate, NB = No binding, read-out: KD ± SEM. As for the experimental part: For labeling DR6 protein with Red‐tris‐NTA second‐generation dye, equal volume of DR6 protein (200 × 10^–9 M) and dye (100 × 10^–9 M) were mixed. The solution was incubated for 30 min at room temperature and centrifuged for 10 min at 4 ℃ and 15 000 × g. The DR6 protein was labeled and ready for the binding assay. Prepare 25 µL of the DR6‐targeting peptides at 20 × 10^–6 M and add 10 µL of the PBS‐T into the PCR tubes 2–12. Transfer 20 µL DR6‐targeting peptides into the PCR tube 1 and then transfer 10 µL of the DR6‐targeting peptides from tube 1 to tube 2 with a pipette and mix by pipetting up and down multiple times. Transfer 10 µL to tube 3 and mix. Repeat the procedure for tube 4–12. Add 10 µL of labeled protein to each tube (1–12) and mix by pipetting. The final DR6 protein concentration was 50× 10^−9 M. Load the capillaries and measure the samples by NanoTemper Monolith NT.015.^[ ^51 , ^52 ^]
Regarding `CC(C)C[C@@H](NC(=O)[C@H]1CCCN1C(=O)[C@@H](C)NC(=O)[C@H]1CCCN1C(=O)[C@@H](CC(C)C)NC(=O)[C@H](N)Cc1ccc(O)cc1)C(=O)N1CCC[C@@H]1C(=O)O` [AHP-D-03] (H-[dY][dL][dP][dA][dP][dL][dP]-OH), the Kd came out at 4.734 ± 0.0088 µM. Consider `CC[C@@H](C)[C@@H](NC(=O)[C@H](N)[C@H](C)O)C(=O)N[C@H](CC(=O)O)C(=O)N[C@H](C)C(=O)N[C@@H](C(=O)N[C@@H](C(=O)N1CCC[C@@H]1C(=O)O)[C@H](C)O)[C@H](C)O` [AHP-D-12] (H-[dT][dI][dD][dA][dT][dT][dP]-OH), for which the Kd was determined as 55.1 ± 27.6 µM.

For `C[C@H](O)[C@@H](NC(=O)[C@@H](CC(=O)O)NC(=O)[C@H](NC(=O)[C@@H](Cc1c[nH]cn1)NC(=O)[C@H](N)CO)[C@H](C)O)C(=O)N[C@H](CC(N)=O)C(=O)N[C@H](CCC(N)=O)C(=O)O` [AHP-D-13] (H-[dS][dH][dT][dD][dT][dN][dQ]-OH), the Kd is 3.174 ± 0.0088 µM. Regarding `CC(C)C[C@@H](NC(=O)[C@H]1CCCN1C(=O)[C@@H](C)NC(=O)[C@H]1CCCN1C(=O)[C@@H](CC(C)C)NC(=O)[C@H]1CCCN1)C(=O)N[C@H](Cc1ccc(O)cc1)C(=O)O` [AHP-DRI-03] (H-[dP][dL][dP][dA][dP][dL][dY]-OH), the Kd is 1.219 ± 0.00702 µM. With `C[C@H](O)[C@@H](NC(=O)[C@@H](CC(=O)O)NC(=O)[C@H](NC(=O)[C@@H](CC(N)=O)NC(=O)[C@H](N)CCC(N)=O)[C@H](C)O)C(=O)N[C@H](Cc1c[nH]cn1)C(=O)N[C@H](CO)C(=O)O` [AHP-DRI-13] (H-[dQ][dN][dT][dD][dT][dH][dS]-OH) the figure was 0.8627 ± 0.00659 µM; with AFMYSLP [AHP-14], 0.457 ± 0.0116 µM; with AGHFSLW [AHP-21], > 10 µM. With ANLLYES [AHP-04] the figure was > 10 µM. With FQFRLQS [AHP-02], the Kd was > 10 µM.

For GFSHYFP [AHP-11], the Kd was > 10 µM.

On to HSTAPQL [AHP-08], for which the Kd is > 10 µM. The figure for HSYPYTQ [AHP-17] is > 10 µM; for KFLQVTN [AHP-16] it is > 10 µM; for KLGPVCP [AHP-06] it is > 10 µM. The figure for KLVPEPS [AHP-09] is > 10 µM; for LMTTKSD [AHP-22] it is > 10 µM.
